Experimental data reported in ChEMBL document CHEMBL1201862, “PubChem BioAssay data set” (2004).
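96-well plates; 48 h exposure; 5 concentrations. Endpoints by linear interpolation between flanking doses. Not reached: highest tested concentration assigned. GI50: concentration for 50% inhibition of growth.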 Active and inactive are the calls of the source. Rule as the data show it: active = GI50 up to about 1.1 µM and inactive = higher.

Assays:
Assay in all cases: inhibition of tumour cell growth, NCI panel, 48 h
[1] = tested on: A549
[2] = tested on: HCT-116
[3] = tested on: HT-29
[4] = tested on: M14
[5] = tested on: M19-MEL
[6] = tested on: NCI-H226
[7] = tested on: OVCAR-3
[8] = tested on: SF-268
[9] = tested on: SF-295
[10] = tested on: SF-539
[11] = tested on: TK-10
[12] = tested on: U-251
[13] = tested on: UACC-257
[14] = tested on: UACC-62
[15] = tested on: UO-31
[16] = tested on: XF498
[17] = tested on: COLO 205
[18] = tested on: EKVX

SMILES | GI50 [1] | GI50 [2] | GI50 [3] | GI50 [4] | GI50 [5] | GI50 [6] | GI50 [7] | GI50 [8] | GI50 [9] | GI50 [10] | GI50 [11] | GI50 [12] | GI50 [13] | GI50 [14] | GI50 [15] | GI50 [16] | GI50 [17] | GI50 [18]
O=C(NN1C(=O)C(Cl)C1c1cccc(O)c1)c1ccccc1O (centres undefined) | > 100 µM (inactive) | > 100 µM (inactive) | > 100 µM (inactive) | > 100 µM (inactive) | > 100 µM (inactive) | > 100 µM (inactive) | > 100 µM (inactive) | > 100 µM (inactive) | > 100 µM (inactive) | > 100 µM (inactive) | > 100 µM (inactive) | > 100 µM (inactive) | > 100 µM (inactive) | > 100 µM (inactive) | > 100 µM (inactive) | > 100 µM (inactive) | – | –
CCN(CC)CCNC(=O)C1COc2ccc(-c3cc(=O)c4ccccc4o3)cc2O1 (centres undefined) | 23.6 µM (inactive) | 17.8 µM (inactive) | 14.9 µM (inactive) | – | 18.3 µM (inactive) | 16.6 µM (inactive) | 21.2 µM (inactive) | 19.5 µM (inactive) | 18.5 µM (inactive) | 15.8 µM (inactive) | – | > 45.2 µM (inactive) | 17.6 µM (inactive) | 17.6 µM (inactive) | 16 µM (inactive) | 22.6 µM (inactive) | 17.9 µM (inactive) | 26.7 µM (inactive)
O=c1[nH]c2cc(-c3ccccc3)nc-2nn1-c1c(Cl)cc(Cl)cc1Cl | 37.6 µM (inactive) | 22.4 µM (inactive) | 34.4 µM (inactive) | 23.9 µM (inactive) | 22.8 µM (inactive) | 23.7 µM (inactive) | 23.2 µM (inactive) | > 100 µM (inactive) | 32.1 µM (inactive) | 19.4 µM (inactive) | 28.6 µM (inactive) | 19.1 µM (inactive) | 29.5 µM (inactive) | 17.5 µM (inactive) | 22.3 µM (inactive) | 27.9 µM (inactive) | 15.1 µM (inactive) | 24.9 µM (inactive)
CCc1cccc(C(C)C)c1NC(=O)CC1Sc2ccccc2NC1=O (centres undefined) | 49.2 µM (inactive) | 56.4 µM (inactive) | 55.6 µM (inactive) | 38.6 µM (inactive) | 40.6 µM (inactive) | > 100 µM (inactive) | 56 µM (inactive) | > 100 µM (inactive) | 44.3 µM (inactive) | > 100 µM (inactive) | > 100 µM (inactive) | 71 µM (inactive) | 43.8 µM (inactive) | – | 43.3 µM (inactive) | 53.6 µM (inactive) | 50.4 µM (inactive) | 80.5 µM (inactive)
C=C=C(C(=O)OC)[S+]([O-])c1ccccc1[N+](=O)[O-] (centres undefined) | > 100 µM (inactive) | 89.9 µM (inactive) | > 100 µM (inactive) | > 100 µM (inactive) | > 100 µM (inactive) | > 100 µM (inactive) | > 100 µM (inactive) | > 100 µM (inactive) | > 100 µM (inactive) | > 100 µM (inactive) | > 100 µM (inactive) | > 100 µM (inactive) | > 100 µM (inactive) | > 100 µM (inactive) | > 100 µM (inactive) | > 100 µM (inactive) | > 100 µM (inactive) | > 100 µM (inactive)
C=CCNC(=O)N(CCCC(NC(C)=O)C(=O)NCc1ccccc1)Cc1ccccc1 (centres undefined) | > 100 µM (inactive) | – | > 100 µM (inactive) | > 100 µM (inactive) | > 100 µM (inactive) | > 100 µM (inactive) | > 100 µM (inactive) | > 100 µM (inactive) | > 100 µM (inactive) | > 100 µM (inactive) | > 100 µM (inactive) | > 100 µM (inactive) | > 100 µM (inactive) | > 100 µM (inactive) | > 100 µM (inactive) | > 100 µM (inactive) | > 100 µM (inactive) | > 100 µM (inactive)
CC(=O)CCCCO | > 100 µM (inactive) | > 100 µM (inactive) | > 100 µM (inactive) | > 100 µM (inactive) | > 100 µM (inactive) | – | > 100 µM (inactive) | > 100 µM (inactive) | > 100 µM (inactive) | > 100 µM (inactive) | > 100 µM (inactive) | > 100 µM (inactive) | > 100 µM (inactive) | > 100 µM (inactive) | > 100 µM (inactive) | > 100 µM (inactive) | > 100 µM (inactive) | > 100 µM (inactive)
COc1cc2c(cc1OC)C(Cl)C(c1ccc(Cl)c(Cl)c1)=C2Cl (centres undefined) | – | – | 4.38 µM (inactive) | 9.4 µM (inactive) | 9.02 µM (inactive) | 8.99 µM (inactive) | 4.18 µM (inactive) | 6.21 µM (inactive) | 9.82 µM (inactive) | 10.3 µM (inactive) | 20.7 µM (inactive) | 4.71 µM (inactive) | – | 4.37 µM (inactive) | 10.6 µM (inactive) | < 0.01 µM (active) | 10.7 µM (inactive) | 18 µM (inactive)
